Values after ≈ are worked out from the molar mass of the structure shown. Values joined by “and” are separate entries in the source; they are usually repeats but may differ in a detail not shown here. Identical values can stand only once. “Also recorded” adds a separate entry of the source.
Columns and labels:
Format in all cases: physicochemical
[1] = Kinetic solubility (2 hours) in SGF media
Method: Sufficient sample was suspended in 0.25 ml media for a maximum anticipated concentration of ca. 40 mg/ml of the free form of the compound. The resulting suspensions were then shaken at 25° C./750 rpm for 2 hours. After equilibration, the appearance was noted, and the pH of the saturated solution was measured. Samples were then filtered through a glass ‘C’ fibre filter (particle retention 1.2 μm). All the samples were diluted 100 times with SGF media. […] Different volumes of the standard and diluted sample solutions were injected.

[2] = Thermodynamic solubility (24 hours) in DI water
Method: (§1) Sufficient sample was suspended in 0.25 ml media for a maximum anticipated concentration of ca. 40 mg/ml of the free form of the compound. The resulting suspensions were then shaken at 25° C./750 rpm for 24 hours. The pH of samples suspended in PBS pH 7.4 were checked and adjusted if necessary (>0.05 change in pH) after 2 hours. After equilibration, the appearance was noted and the pH of the saturated solution was measured. Samples were then filtered through a glass ‘C’ fibre filter (Particle retention 1.2 μm). Samples suspended in PBS pH 7.4 buffer was diluted 10 times with PBS buffer and samples suspended in DI water diluted 100 times with DI water.

[3] = Preliminary solubility investigation of amorphous cethromycin in solvents; conditions: for Solubility: 50 °C, organic solvent or mixture, thermodynamic from solid, heated to 50° C.
Method: Amorphous cethromycin (25 mg) in HPLC vials was treated with increasing volumes of solvent until the material fully dissolved or until a maximum of 60 vol (1.5 ml) had been added. After each addition of solvent, the vials were stirred and gently heated to 50° C. before the addition of a new aliquot of solvent. […] All solids were then isolated by filtration and dried under suction. Antisolvent (n-heptane, 10 or 20 vol) was added to any solutions and the resulting gums were matured in a chamber switching from 25° C. to 50° C. every four hours. All isolated solids were analysed by PXRD.

[4] = Thermodynamic solubility (24 hours) in PBS media; conditions: PBS pH 7.4, 24 hr (Table 33)
Method: as §1

[5] = PXRD of residues undissolved after solubility analysis
Method: PXRD analysis was performed on residues that remained undissolved after the solubility analysis to check for changes in solid form.

[6] = Solubility assessment of amorphous cethromycin chloride in solvents at 25° C.
[7] = Storage stability at 40° C./75% RH and 25° C./97% RH (PXRD, HPLC, NMR); conditions: 9 days, Batch D
Method: Studies were performed on various cethromycin forms in order to determine stability for storage.

Which solubility kinetic at 2 h ([1]; simulated gastric fluid, thermodynamic from solid, 2 hours, 25° C.) does the source give for CC[C@H]1OC(=O)[C@H](C)C(=O)[C@H](C)[C@@H](O[C@@H]2O[C@H](C)C[C@H](N(C)C)[C@H]2O)[C@](C)(OC/C=C/c2cnc3ccccc3c2)C[C@@H](C)C(=O)[C@H](C)[C@H]2NC(=O)O[C@@]21C [Cethromycin, (3aS,4R,7R,9R,10R,11R,13R,15R,15aR)-10-(((2S,3R,4S,6R)-4-(dimethylamino)-3-hydroxy-6-methyltetrahydro-2H-pyran-2-yl)oxy)-4-ethyl-3a,7,9,11,13,15-hexamethyl-11-(((E)-3-(quinolin-3-yl)allyl)oxy)octahydro-2H-[1]oxa-cyclotetradecino[4,3-d]oxazole-2,6,8,14(1H,7H,9H)-tetraone] here?
The solubility kinetic at 2 h was 25 mg/mL (≈ 32.6 mM).

And the “pH of the saturated solution, thermodynamic solubility in DI water” value ([2]; DI water, 24 hours)?
The value was 7.0.

And the solubility thermodynamic at 24 h ([2]; thermodynamic from solid, DI water, 24 hours, 25° C.)?
Its solubility thermodynamic at 24 h is 0.4 mg/mL (≈ 0.522 mM).

And the Solubility ([3]; 2-propanol, 10 vol)?
The Solubility was greater than 100 mg/mL.

What about the Solubility in solvents ([3]; 10 vol of THF:H2O (9:1), 2-propanol, EtOH, EtOAc, acetone, MeCN, THF, TBME and DCM) of the same compound?
Its Solubility in solvents is “readily soluble”.

What about the Solubility ([3]; DCM, 10 vol) of the same compound?
Its Solubility is greater than 100 mg/mL.

What about the Solubility ([3]; EtOAc, 10 vol) of the same compound?
The Solubility was greater than 100 mg/mL.

And the Solubility ([3]; EtOH, 10 vol)?
Its Solubility is greater than 100 mg/mL.

And the Solubility ([3]; Hept (heptane), Hept, 10 vol)?
The Solubility was less than 100 mg/mL.

And the Solubility ([3]; Hept (heptane), Hept, 20 vol)?
Its Solubility is less than 50 mg/mL.

What about the Solubility ([3]; Hept (heptane), Hept, 30 vol) of the same compound?
The Solubility was less than 33.3 mg/mL.

And the Solubility ([3]; Hept (heptane), Hept, 40 vol)?
The Solubility was less than 25 mg/mL.

What about the Solubility ([3]; Hept (heptane), Hept, 50 vol) of the same compound?
The Solubility was less than 20 mg/mL.

And the Solubility ([3]; Hept (heptane), Hept, 60 vol)?
The Solubility was less than 16.7 mg/mL.

What about the Solubility ([3]; MeCN, 10 vol) of the same compound?
The Solubility was greater than 100 mg/mL.

And the Solubility ([3]; TBME, 10 vol)?
The Solubility was greater than 100 mg/mL.

And the Solubility ([3]; THF, 10 vol)?
Its Solubility is greater than 100 mg/mL.

And the Solubility ([3]; THF:H2O (9:1), THF:H2O (9:1), 10 vol)?
The Solubility was greater than 100 mg/mL.

What about the Solubility ([3]; acetone, 10 vol) of the same compound?
The Solubility was greater than 100 mg/mL.

With CCC1OC(=O)C(C)C(=O)C(C)C(OC2OC(C)CC(N(C)C)C2O)C(C)(OCC=Cc2cnc3ccccc3c2)CC(C)C(=O)C(C)C2NC(=O)OC12C (stereo not drawn) [Free form] as the compound, how does the “Avg Sol'y” value ([1]; 2 hr (Table 32)) read?
Its value is 25 mg/mL.

What about the “Sol'y” value ([1]; 2 hr (Table 32)) of the same compound?
Its value is 24 mg/mL.

What about the “pH at 2 hrs” value ([1]; 2 hr (Table 32)) of the same compound?
The value was 7.6 and 7.5.

And the “Avg Sol'y” value ([2]; DI Water, 24 hr (Table 34))?
The value was 0.41 mg/mL.

What about the “Sol'y” value ([2]; DI Water, 24 hr (Table 34)) of the same compound?
The value was 0.47 mg/mL and 0.35 mg/mL.

What about the “pH at 24 hrs” value ([2]; DI Water, 24 hr (Table 34)) of the same compound?
Its value is 8.1.

And the “Avg Sol'y” value [4]?
Its value is 2.0 mg/mL.

What about the “Sol'y” value [4] of the same compound?
Its value is 2.0 mg/mL and 1.9 mg/mL.

What about the “pH at 24 hrs” value [4] of the same compound?
Its value is 6.8.

What about the “PXRD of Residues” value ([5]; PBS pH 7.4, 24 hr) of the same compound?
Its value is “freebase pattern 2”.

What about the “PXRD of Residues” value ([5]; SGF media, 2 hr) of the same compound?
The value was “amorphous”.

Which “Solubility in selected solvents” value ([6]; 18 solvents) does the source give for CCC1OC(=O)C(C)C(=O)C(C)C(OC2OC(C)CC(N(C)C)C2O)C(C)(OCC=Cc2cnc3ccccc3c2)CC(C)C(=O)C(C)C2NC(=O)OC12C.Cl (stereo not drawn) [amorphous cethromycin chloride] here?
Its value is “soluble in 10 of the 18 solvents”.

What about the Solubility ([6]; Acetone, 1 vol) of the same compound?
The Solubility was “✓ (dissolved)”.

What about the Solubility ([6]; EtOAc, 1 vol) of the same compound?
Its Solubility is “x (not dissolved/too dry to slurry)”.

What about the Solubility ([6]; EtOAc, 2 vol) of the same compound?
The Solubility was “x (not dissolved/too dry to slurry)”.

What about the Solubility ([6]; EtOAc, 3 vol) of the same compound?
The Solubility was “x (not dissolved/too dry to slurry)”.

And the Solubility ([6]; EtOAc, 4 vol)?
The Solubility was “x (not dissolved/too dry to slurry)”.

What about the Solubility ([6]; EtOAc, 5 vol) of the same compound?
The Solubility was “✓o (slurry)”.

And the Solubility ([6]; EtOH/H2O (10%), 1 vol)?
The Solubility was “✓ (dissolved)”.

And the Solubility ([6]; Ethanol, 1 vol)?
The Solubility was “✓ (dissolved)”.

What about the Solubility ([6]; Hept, 1 vol) of the same compound?
Its Solubility is “x (not dissolved/too dry to slurry)”.

What about the Solubility ([6]; Hept, 2 vol) of the same compound?
The Solubility was “x (not dissolved/too dry to slurry)”.

What about the Solubility ([6]; Hept, 3 vol) of the same compound?
The Solubility was “x (not dissolved/too dry to slurry)”.

What about the Solubility ([6]; Hept, 4 vol) of the same compound?
The Solubility was “x (not dissolved/too dry to slurry)”.

And the Solubility ([6]; Hept, 5 vol)?
The Solubility was “x (not dissolved/too dry to slurry)”.

And the Solubility ([6]; Hept, 10 vol)?
The Solubility was “✓o (slurry)”.

And the Solubility ([6]; MEK, 1 vol)?
Its Solubility is “x (not dissolved/too dry to slurry)”.

And the Solubility ([6]; MEK, 2 vol)?
Its Solubility is “x (not dissolved/too dry to slurry)”.

And the Solubility ([6]; MEK, 3 vol)?
The Solubility was “x (not dissolved/too dry to slurry)”.

What about the Solubility ([6]; MEK, 4 vol) of the same compound?
The Solubility was “x (not dissolved/too dry to slurry)”.

And the Solubility ([6]; MEK, 5 vol)?
The Solubility was “✓o (slurry)”.

And the Solubility ([6]; MIBK, 1 vol)?
The Solubility was “x (not dissolved/too dry to slurry)”.

And the Solubility ([6]; MIBK, 2 vol)?
Its Solubility is “x (not dissolved/too dry to slurry)”.

And the Solubility ([6]; MIBK, 3 vol)?
Its Solubility is “x (not dissolved/too dry to slurry)”.

What about the Solubility ([6]; MIBK, 4 vol) of the same compound?
The Solubility was “x (not dissolved/too dry to slurry)”.

What about the Solubility ([6]; MIBK, 5 vol) of the same compound?
Its Solubility is “✓o (slurry)”.

And the Solubility ([6]; MTBE, 1 vol)?
Its Solubility is “x (not dissolved/too dry to slurry)”.

And the Solubility ([6]; MTBE, 2 vol)?
The Solubility was “x (not dissolved/too dry to slurry)”.

And the Solubility ([6]; MTBE, 3 vol)?
The Solubility was “x (not dissolved/too dry to slurry)”.

And the Solubility ([6]; MTBE, 4 vol)?
Its Solubility is “x (not dissolved/too dry to slurry)”.

And the Solubility ([6]; MTBE, 10 vol)?
Its Solubility is “✓o (slurry)”.

And the Solubility ([6]; MeCN, 1 vol)?
The Solubility was “✓ (dissolved)”.

And the Solubility ([6]; MeOH, 1 vol)?
The Solubility was “✓ (dissolved)”.

What about the Solubility ([6]; THF, 1 vol) of the same compound?
The Solubility was “x (not dissolved/too dry to slurry)”.

What about the Solubility ([6]; THF, 2 vol) of the same compound?
Its Solubility is “x (not dissolved/too dry to slurry)”.

And the Solubility ([6]; THF, 3 vol)?
The Solubility was “x (not dissolved/too dry to slurry)”.

What about the Solubility ([6]; THF, 4 vol) of the same compound?
The Solubility was “x (not dissolved/too dry to slurry)”.

And the Solubility ([6]; THF, 5 vol)?
Its Solubility is “✓ (dissolved)”.

What about the Solubility ([6]; THF/H2O (10%), 1 vol) of the same compound?
The Solubility was “✓ (dissolved)”.

And the Solubility ([6]; Toluene, 1 vol)?
Its Solubility is “x (not dissolved/too dry to slurry)”.

What about the Solubility ([6]; Toluene, 2 vol) of the same compound?
The Solubility was “x (not dissolved/too dry to slurry)”.

What about the Solubility ([6]; Toluene, 3 vol) of the same compound?
The Solubility was “x (not dissolved/too dry to slurry)”.

And the Solubility ([6]; Toluene, 4 vol)?
Its Solubility is “x (not dissolved/too dry to slurry)”.

What about the Solubility ([6]; Toluene, 5 vol) of the same compound?
The Solubility was “x (not dissolved/too dry to slurry)”.

What about the Solubility ([6]; Toluene, 10 vol) of the same compound?
Its Solubility is “✓o (slurry)”.

What about the Solubility ([6]; cHex, 1 vol) of the same compound?
The Solubility was “x (not dissolved/too dry to slurry)”.

What about the Solubility ([6]; cHex, 2 vol) of the same compound?
Its Solubility is “x (not dissolved/too dry to slurry)”.

And the Solubility ([6]; cHex, 3 vol)?
Its Solubility is “x (not dissolved/too dry to slurry)”.

What about the Solubility ([6]; cHex, 4 vol) of the same compound?
The Solubility was “x (not dissolved/too dry to slurry)”.

And the Solubility ([6]; cHex, 5 vol)?
The Solubility was “x (not dissolved/too dry to slurry)”.

And the Solubility ([6]; cHex, 10 vol)?
The Solubility was “✓o (slurry)”.

And the Solubility ([6]; iBuOH, 1 vol)?
Its Solubility is “✓ (dissolved)”.

And the Solubility ([6]; iPrOAc, 1 vol)?
Its Solubility is “x (not dissolved/too dry to slurry)”.

And the Solubility ([6]; iPrOAc, 2 vol)?
The Solubility was “x (not dissolved/too dry to slurry)”.

What about the Solubility ([6]; iPrOAc, 3 vol) of the same compound?
Its Solubility is “x (not dissolved/too dry to slurry)”.

What about the Solubility ([6]; iPrOAc, 4 vol) of the same compound?
The Solubility was “x (not dissolved/too dry to slurry)”.

What about the Solubility ([6]; iPrOAc, 5 vol) of the same compound?
Its Solubility is “x (not dissolved/too dry to slurry)”.

What about the Solubility ([6]; iPrOAc, 10 vol) of the same compound?
Its Solubility is “✓o (slurry)”.

What about the Solubility ([6]; iPrOH, 1 vol) of the same compound?
Its Solubility is “✓ (dissolved)”.

What about the Solubility ([6]; iPrOH/H2O (10%), 1 vol) of the same compound?
The Solubility was “✓ (dissolved)”.

And the “Storage at 40° C./75% RH for 9 days (PXRD)” value [7]?
Its value is “did not crystallise; also recorded: amorphous”.

Reference: patent US11697667B2, “Salts and polymorphs of cethromycin for the treatment of disease” (AliquantumRx, Inc., priority 2019, dated 2023)
